According to US9371295B2, “Compounds for use in the treatment of disorders that are ameliorated by inhibition of HDAC” (IRBM—Science Park S.p.A., priority 2012, dated 2016):

Assays:
[1] = target: T1, HDAC1 (Homo sapiens, UniProt Q13547); assay: HDAC1 assay (Fluor-de-Lys fluorescent deacetylase assay); type: biochemical; conditions: read-out: hHDAC IC50
T1 construct: made in house
Outline: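 Serially diluted compounds were pre-incubated with purified FLAG-tagged HDAC1 (1-2 nM final; from transfected HeLa cells) or HeLa nuclear extract, then given the Fluor-de-Lys acetyl-lysine substrate/developer; deacetylation read as fluorescence. Reactions were stopped with TSA (3 uM final).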

[2] = Mouse in vivo pharmacokinetics, oral dose; conditions: plasma
Procedure: Compounds of the invention were evaluated in in vitro and in vivo pharmacokinetic studies.

[3] = Intrinsic clearance in pooled human liver microsomes; type: in vitro ADME; conditions: pH 7.4
[4] = Intrinsic clearance in pooled mouse liver microsomes; type: in vitro ADME; conditions: pH 7.4
[5] = Intrinsic clearance in pooled rat liver microsomes; type: in vitro ADME; conditions: pH 7.4
Procedure: Assays were performed in presence of 0.5 mg/ml of microsomal protein, with a NADPH-generating system (1 mM NADP, 2.5 mM glucose 6-phosphate and 2 U/ml glucose 6-phosphate dehydrogenase) in 100 mM potassium phosphate buffer containing 3.3 mM MgCl2 (pH 7.4). Tested compounds were stored in 10 mM DMSO solution and incubated at 1 μM final concentration (final DMSO concentration in incubation less than 0.1%). Microsomes and substrates were preincubated at 37° C. for 5 min and then the enzymatic reactions were initiated by the addition of cofactors and incubated at 37° C. for up to 90 min. Incubations were terminated by the addition of an equivalent volume of cold acetonitrile containing I.S. Control incubations, where the substrate was incubated in the same buffer system containing pRLM without the NADPH-generating system, were also run.

T1 sequence (Q13547 whole entry): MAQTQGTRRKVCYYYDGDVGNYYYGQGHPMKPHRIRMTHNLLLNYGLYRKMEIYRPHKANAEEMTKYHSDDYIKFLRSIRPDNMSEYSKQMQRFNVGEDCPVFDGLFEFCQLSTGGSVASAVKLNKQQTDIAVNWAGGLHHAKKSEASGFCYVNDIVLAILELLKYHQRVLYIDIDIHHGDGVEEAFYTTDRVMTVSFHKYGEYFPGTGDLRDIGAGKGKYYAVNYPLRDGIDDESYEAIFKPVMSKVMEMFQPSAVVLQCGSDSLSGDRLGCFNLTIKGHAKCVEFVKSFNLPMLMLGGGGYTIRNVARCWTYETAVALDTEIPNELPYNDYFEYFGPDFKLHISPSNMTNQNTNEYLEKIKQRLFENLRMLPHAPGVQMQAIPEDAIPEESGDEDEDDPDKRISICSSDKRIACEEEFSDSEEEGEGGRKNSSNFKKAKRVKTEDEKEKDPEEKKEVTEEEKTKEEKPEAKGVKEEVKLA

Row | SMILES | IC50 [1] | other results
1 | CCC(=O)CCCCC[C@H](NC(=O)C1CN(C)C1)c1ncc(-c2cc3ccccc3nc2OC)o1 [Compound 2, (S)-N-(1-(5-(2-methoxyquinolin-3-yl)oxazol-2-yl)-7-oxononyl)-1-methylazetidine-3-carboxamide] | < 0.1 µM | AUC ([2]; po 20 mg/kg): 22.4 µM·h; Cmax ([2]; po 20 mg/kg): 1870 nM; microsomal CLint at 1 μM [3]: 13 µL/min/mg; microsomal CLint at 1 μM [4]: 27 µL/min/mg; microsomal CLint at 1 μM [5]: 33 µL/min/mg
2 | CCC(=O)CCCCC[C@H](NC(=O)C(=O)N1CCN(C)CC1)c1ncc(-c2cc3ccccc3nc2OC)o1 [Compound 37, (S)-N-(1-(5-(2-methoxyquinolin-3-yl)oxazol-2-yl)-7-oxononyl)-2-(4-methylpiperazin-1-yl)-2-oxoacetamide] | < 0.1 µM | –
3 | CCC(=O)CCCCC[C@H](NC(=O)C1(F)CN(C)C1)c1ncc(-c2cc3ccccc3nc2OC)o1 [Compound 67, (S)-3-fluoro-N-(1-(5-(2-methoxyquinolin-3-yl)oxazol-2-yl)-7-oxononyl)-1-methylazetidine-3-carboxamide] | < 0.1 µM | –
4 | CCC(=O)CCCCC[C@H](NC(=O)Cn1nc(C)nc1C)c1ncc(-c2cc3ccccc3nc2OC)o1 [Compound 80, (S)-2-(3,5-dimethyl-1H-1,2,4-triazol-1-yl)-N-(1-(5-(2-methoxyquinolin-3-yl)oxazol-2-yl)-7-oxononyl)acetamide] | < 0.1 µM | –
5 | CCC(=O)CCCCC[C@H](NC(=O)c1cnc(CN2CCCC2)s1)c1ncc(-c2cc3ccccc3nc2OC)o1 [Compound 82, (S)-N-(1-(5-(2-methoxyquinolin-3-yl)oxazol-2-yl)-7-oxononyl)-2-(pyrrolidin-1-ylmethyl)thiazole-5-carboxamide] | < 0.1 µM | –
6 | CCC(=O)CCCCC[C@H](NC(=O)C1CN(C)C1)c1ncc(-c2cc3ccccc3n(C)c2=O)o1 [Compound 92, (S)-1-methyl-N-(1-(5-(1-methyl-2-oxo-1,2-dihydroquinolin-3-yl)oxazol-2-yl)-7-oxononyl)azetidine-3-carboxamide] | < 0.1 µM | AUC ([2]; po 10 mg/kg): 0.32 µM·h; Cmax ([2]; po 10 mg/kg): 100 nM; microsomal CLint at 1 μM [3]: < 5 µL/min/mg; microsomal CLint at 1 μM [4]: 13 µL/min/mg; microsomal CLint at 1 μM [5]: 15 µL/min/mg
7 | CCC(=O)CCCCC[C@H](NC(=O)CCN(C)C)c1ncc(-c2cc3ccccc3n(C)c2=O)o1 [Compound 106, (S)-3-(dimethylamino)-N-(1-(5-(1-methyl-2-oxo-1,2-dihydroquinolin-3-yl)oxazol-2-yl)-7-oxononyl)propanamide] | < 0.1 µM | –
8 | CCC(=O)CCCCC[C@H](NC(=O)C(C)(C)N(C)C)c1ncc(-c2cc3ccccc3n(C)c2=O)o1 [Compound 107, (S)-2-(dimethylamino)-2-methyl-N-(1-(5-(1-methyl-2-oxo-1,2-dihydroquinolin-3-yl)oxazol-2-yl)-7-oxononyl)propanamide] | < 0.1 µM | –
9 | CCC(=O)CCCCC[C@H](NC(=O)C1CCN(C)CC1)c1ncc(-c2cc3ccccc3n(C)c2=O)o1 [Compound 109, (S)-1-methyl-N-(1-(5-(1-methyl-2-oxo-1,2-dihydroquinolin-3-yl)oxazol-2-yl)-7-oxononyl)piperidine-4-carboxamide] | < 0.1 µM | –
10 | CCC(=O)CCCCC[C@H](NC(=O)c1cncs1)c1ncc(-c2cc3ccccc3n(C)c2=O)o1 [Compound 110, (S)-N-(1-(5-(1-methyl-2-oxo-1,2-dihydroquinolin-3-yl)oxazol-2-yl)-7-oxononyl)thiazole-5-carboxamide] | < 0.1 µM | –
11 | CCC(=O)CCCCC[C@H](NC(=O)C1(N(C)C)CCCC1)c1ncc(-c2cc3ccccc3n(C)c2=O)o1 [Compound 111, (S)-1-(dimethylamino)-N-(1-(5-(1-methyl-2-oxo-1,2-dihydroquinolin-3-yl)oxazol-2-yl)-7-oxononyl)cyclopentanecarboxamide] | < 0.1 µM | –
